Test [1] relates to EGFR phosphorylation in NIH3T3-EGFR T790M/L858R cells. The experiment in a line: Western blot of EGFR phosphorylation. The format is cell-based. Conditions: 6 h, immunoblotting. As for the experimental part: Cell viability was determined using sulforhodamine B assay. IC50 values were determined based on the results of three independent experiments. […] Whole-cell lysates were assayed for total EGFR and phosphorylation of EGFR by immunoblotting. […] Cell viability was determined using sulforhodamine B assay.
(In general: A western blot detects proteins with antibodies after separation by electrophoresis.)

Test [2] concerns Calu-3 xenograft. The experiment in a line: Human tumor xenograft model, tumor growth. The format is in vivo. Conditions: nude mice, p.o. twice daily. The method, then: (§1) The mice were housed and maintained under specific-pathogen free (SPF) conditions. All animal procedures were performed according to the protocol approved by the Institutional Animal Care and Use Committee at Shanghai Institute of Materia Medica, Chinese Academy of Sciences (SIMM-AE-DJ-2010-01). Under sterile conditions, well-developed tumors were cut into 1-mm^3 fragments and transplanted s.c. into the right flank of nude mice using a trocar. When the tumor reached a volume reached 100 to 200 mm^3, the mice were randomly assigned into control and treatment groups. […] The sizes of the tumors were measured twice per week using microcalipers. The tumor volume (V) was calculated as follows: V = (length×width^2)/2. The body weights of the mice were observed simultaneously.

In test [3] the test system is SK-OV-3 xenograft. The experiment in a line: Human tumor xenograft model, tumor growth. It counts as in vivo. Conditions: nude mice, p.o. twice daily. As for the experimental part: as §1
On the technique in general: A xenograft is tissue or cells of one species grown in another, often human tumour cells in immunodeficient mice.

The target in test [4] is ErbB2 (Homo sapiens, UniProt P04626). Description: Rapid dilution irreversibility experiment. The format is biochemical. Details: The kinase domain of EGFR, ErbB-2, IGF1R, VEGFR2, FGFR1, PDGFRα, c-Src, c-Met, RON, c-Kit, EphA2 and EphB2 were expressed; made in house. Conditions: preincubated 30 min at 100-fold IC50, diluted 100-fold, sampled 180 minutes. As for the experimental part:
The microplate was placed in the EZ Reader (Caliper Life Sciences, MA) and wells were repeatedly sampled for 180 minutes.
To verify this, we determined the reversibility of EGFR and ErbB2 binding using a dilution method. […] After incubating, the enzyme/inhibitor mixture is diluted 100-fold (i.e., to normal reaction conditions), reaction buffer plus ATP and substrate are added, and receptor kinase activity is measured continuously. In general, a reversible inhibitor dissociates quickly, allowing immediate recovery of enzymatic activity, whereas a slowly reversible inhibitor allows a gradual increase in activity. In contrast, an irreversible inhibitor prevents recovery of enzymatic activity.

Sequence of ErbB2 (P04626 720-987 limits assumed): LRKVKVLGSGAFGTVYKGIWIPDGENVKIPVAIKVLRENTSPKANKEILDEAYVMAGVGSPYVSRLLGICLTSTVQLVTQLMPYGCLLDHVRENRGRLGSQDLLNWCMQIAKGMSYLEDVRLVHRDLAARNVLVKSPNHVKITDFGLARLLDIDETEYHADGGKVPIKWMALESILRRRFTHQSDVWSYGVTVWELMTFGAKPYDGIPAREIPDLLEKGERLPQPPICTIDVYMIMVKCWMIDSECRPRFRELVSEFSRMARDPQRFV

With `CS(=O)(=O)CCNCc1ccc(-c2ccc3ncnc(Nc4ccc(OCc5cccc(F)c5)c(Cl)c4)c3c2)o1` [lapatinib, reference compound], the “inhibition of EGFR phosphorylation” value in test [1] is “much weaker inhibitory effect”. The tumor growth entry in test [2] and in test [3] was “exhibited antitumor activity” throughout. For the same compound, in test [4], the “recovery of ErbB2 enzymatic activity after dilution” value is “slow recovery of the enzymatic activity”.

For the origin of these results see PMC3138742 (PLoS ONE, 2011).
